In patent US20230285402A1, “Compositions and Methods of Modulating Short-Chain Dehydrogenase Activity” (BOARD OF REGENTS OF THE UNIVERSITY OF TEXAS SYSTEM, priority 2013, published 2023):
Like-named read-outs stand apart in the source and are kept apart here.

Key:
[1] = target: T1, recombinant 15-PGDH (Homo sapiens (Human), UniProt P15428); assay: Inhibition of enzymatic activity of recombinant 15-PGDH in vitro (NADH generation); type: biochemical
[2] = system: bone marrow; assay: Hematopoietic colonies from wild-type mouse bone marrow treated ex vivo; type: cell-based; details: 1 uM, ex vivo on ice 2 hours
Description: Treated marrow is again then plated into methylcellulose for counting of hematopoietic colonies.

[3] = system: 15-PGDH mRNA; assay: 15-PGDH mRNA by real-time PCR in colon cancer cell lines; type: cell-based; details: treated colon cancer cell lines
Description: In these studies parental cell lines (not containing the 15-PGDH-luciferase reporter) are employed.

[4] = system: 15-PGDH-luciferase fusion reporter in V9m, LS174T and V503 cells; assay: 15-PGDH-luciferase fusion reporter induction in colon cancer cell lines; type: cell-based; details: for luciferase activity, in words: V9m, LS174T, V503
[5] = system: A549 cells; assay: PGE2 in medium of IL1-beta stimulated A549 cells; type: cell-based; details: for rank of PGE2 level in medium: 100 nM drug; for induction of PGE2 compared with SW033291: 4 nM to 2500 nM
[6] = target: T1, recombinant 15-PGDH; assay: Melting temperature shift of recombinant 15-PGDH (SYPRO Orange); type: binding
[7] = system: mice; assay: Homing of CFSE labeled donor bone marrow cells in lethally irradiated mice; type: in vivo, mouse
Procedure: Drugs are administered following radiation, following the transplant, and again at 8 hours after the transplant.

[8] = read-out: Enzyme Inhibitor IC50 (nM) at 5 nM 15-PGDH, 5 nM recombinant human 15-PGDH

T1 sequence (P15428 whole entry): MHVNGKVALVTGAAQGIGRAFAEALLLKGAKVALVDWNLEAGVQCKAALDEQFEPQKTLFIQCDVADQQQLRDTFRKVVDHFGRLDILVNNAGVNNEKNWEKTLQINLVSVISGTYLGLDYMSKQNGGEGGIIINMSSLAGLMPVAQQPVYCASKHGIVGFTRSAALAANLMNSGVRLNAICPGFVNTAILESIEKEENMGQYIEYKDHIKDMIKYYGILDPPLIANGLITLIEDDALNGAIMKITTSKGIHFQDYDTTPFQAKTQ

Molecule: 4-((3-amino-4-phenyl-6-(thiophen-2-yl)thieno[2,3-b]pyridin-2-yl)sulfonyl)butyl acetate [SW209128]
- IC50 [1, 8]: 4910 nM

Molecule: CCCCC[C@H](O)/C=C/[C@H]1[C@H](O)CC(=O)[C@@H]1C/C=C\CCCC(=O)O [PGE2]
- increase in colonies compared with SW033291 treated marrow, in words [2]: lesser increase

Molecule: CS(=O)(=O)c1sc2nc(-c3cccs3)cc(-c3ccccc3)c2c1N [SW033290]
- IC50 [1, 8]: 525 nM

Molecule: COc1ccc(OC)c(N(CC(=O)Nc2cccnc2)S(=O)(=O)c2ccccc2)c1 [SW054384]
- 15-PGDH mRNA levels [3]: do not in general alter 15-PGDH mRNA levels
- concentration of maximum activity [4]: 6.25 µM
- luciferase activity, in words [4]: increase luciferase activity
- PGE2 level ([5]; compound from 24 hours before IL1-beta, maintained next 26 hours): lower level of PGE2
- direct binding to 15-PGDH, in words ([6]; melting temperature shift, cofactor 10 μM and 100 μM): cannot be demonstrated to bind

Molecule: O=C(c1ccc2nc(-c3ccccc3)c(-c3ccccc3)nc2c1)N1CCCCC1 [SW145753]
- 15-PGDH mRNA levels [3]: do not in general alter 15-PGDH mRNA levels
- luciferase activity, in words [4]: increase luciferase activity
- 15-PGDH activity in cells as reflected in PGE2 levels ([5]; IL1-beta 23 hours, compound for last 5 hours): clear inhibition of 15-PGDH activity

Molecule: CCCC[S+]([O-])c1sc2nc(-c3ccccc3)nc(-c3ccccc3)c2c1N (stereo not drawn) [SW208065]
- Concentration for Full Cell Line Reporter Induction ([4]; maximal induction of reporter): ~100 nM
- Δ Tm (NADH) ([6]; shift in melting temperature, cofactor NADH present): 13 °C

Molecule: CCCC[S+]([O-])c1sc2nc(-c3nccs3)cc(-c3ccccc3)c2c1N (stereo not drawn) [SW208066]
- rank of PGE2 level in medium [5]: highest levels of PGE2

Molecule: CCCC[S+]([O-])c1sc2nc(-c3cccs3)nc(-c3ccccc3)c2c1N (stereo not drawn) [SW208067]
- rank of PGE2 level in medium [5]: highest levels of PGE2

Molecule: CCCCSc1ncccc1N [SW208068]
- IC50 [1, 8]: > 7500 nM

Molecule: CCCC[S+]([O-])c1ncccc1N (stereo not drawn) [SW208070]
- IC50 [1, 8]: > 7500 nM

Molecule: CCCC[S+]([O-])c1sc2nc(-c3cccs3)cc(-c3ccc(Br)cc3)c2c1N (stereo not drawn) [SW208199]
- IC50 [1, 8]: 2.9 nM

Molecule: CCCCSc1cc2ccc(-c3ccccc3)nc2s1 [SW208430, 2-(butylthio)-6-phenylthieno[2,3-b]pyridine]
- IC50 [1, 8]: > 2500 nM

Molecule: CCCC[S+]([O-])c1cc2ccc(-c3ccccc3)nc2s1 (stereo not drawn) [SW208432, 2-(butylsulfinyl)-6-phenylthieno[2,3-b]pyridine]
- IC50 [1, 8]: 3.53 nM

Molecule: CCCCS(=O)(=O)c1cc2ccc(-c3ccccc3)nc2s1 [SW208434]
- IC50 [1, 8]: > 2500 nM

Molecule: CCCCSc1sc2nc(-c3ccccc3)ccc2c1N [SW208435, 2-(butylthio)-6-phenylthieno[2,3-b]pyridin-3-amine]
- IC50 [1, 8]: > 2500 nM

Molecule: CCCC[S+]([O-])c1sc2nc(-c3cccs3)cc(C)c2c1N (stereo not drawn) [SW208488, 2-(butylsulfinyl)-4-methyl-6-(thiophen-2-yl)thieno[2,3-b]pyridin-3-amine]
- IC50 [1, 8]: 1.43 nM

Molecule: CCCCSc1nc2nc(-c3cccs3)ccc2[nH]1 [SW208494, 2-(butylthio)-5-(thiophen-2-yl)-3H-imidazo[4,5-b]pyridine]
- IC50 [1, 8]: > 7500 nM

Molecule: CC(C)[S+]([O-])c1sc2nc(-c3nccs3)cc(-c3cccnc3)c2c1N (stereo not drawn) [SW208778]
- IC50 [1, 8]: 3.99 nM

Molecule: CCCC[S+]([O-])c1sc2nc(-c3nccs3)c(C(=O)OCC)c(-c3ccc(Br)cc3)c2c1N (stereo not drawn) [SW209123, Ethyl 3-amino-4-(4-bromophenyl)-2-(butylsulfinyl)-6-(thiazol-2-yl)thieno[2,3-b]pyridine-5-carboxylate]
- IC50 [1, 8]: 40.8 nM

Molecule: CCCC[S+]([O-])c1sc2nc(-c3nccs3)cc(-c3nccs3)c2c1N (stereo not drawn) [SW209124, 2-(butylsulfinyl)-4,6-di(thiazol-2-yl)thieno[2,3-b]pyridin-3-amine]
- induction of PGE2 compared with SW033291 [5]: increased activity relative to SW033291

Molecule: CCCC[S+]([O-])c1sc2nc(-c3nccs3)cc(-c3nccn3C)c2c1N (stereo not drawn) [SW209125, 2-(butylsulfinyl)-4-(1-methyl-1H-imidazol-2-yl)-6-(thiazol-2-yl)thieno[2,3-b]pyridin-3-amine]
- induction of PGE2 compared with SW033291 [5]: increased activity relative to SW033291

Molecule: CC(=O)OCCCC[S+]([O-])c1sc2nc(-c3cccs3)cc(-c3ccccc3)c2c1N (stereo not drawn) [SW209129, 4-((3-amino-4-phenyl-6-(thiophen-2-yl)thieno[2,3-b]pyridin-2-yl)sulfinyl)butyl acetate]
- IC50 [1, 8]: 41.5 nM

Molecule: Nc1c([S+]([O-])CCCCO)sc2nc(-c3cccs3)cc(-c3ccccc3)c12 (stereo not drawn) [SW209271, 4-((3-amino-4-phenyl-6-(thiophen-2-yl)thieno[2,3-b]pyridin-2-yl)sulfinyl)butan-1-ol]
- IC50 [1, 8]: 34.2 nM

Molecule: CC(=O)OCCCS(=O)(=O)c1sc2nc(-c3cccs3)cc(-c3ccccc3)c2c1N [SW209272, 3-((3-amino-4-phenyl-6-(thiophen-2-yl)thieno[2,3-b]pyridin-2-yl)sulfonyl)propyl acetate]
- IC50 [1, 8]: 530 nM

Molecule: CC(=O)OCCC[S+]([O-])c1sc2nc(-c3cccs3)cc(-c3ccccc3)c2c1N (stereo not drawn) [SW209273, 3-((3-amino-4-phenyl-6-(thiophen-2-yl)thieno[2,3-b]pyridin-2-yl)sulfinyl)propyl acetate]
- IC50 [1, 8]: 21.6 nM

Molecule: CC(C)[S+]([O-])c1sc2nc(-c3nccs3)cc(-c3nccn3C)c2c1N (stereo not drawn) [SW209279, 2-(isopropylsulfinyl)-4-(1-methyl-1H-imidazol-2-yl)-6-(thiazol-2-yl)thieno[2,3-b]pyridin-3-amine]
- IC50 [1, 8]: 4.18 nM

Molecule: CCC[S+]([O-])c1sc2nc(-c3nccs3)cc(-c3nccn3C)c2c1N (stereo not drawn) [SW209280, 4-(1-methyl-1H-imidazol-2-yl)-2-(propylsulfinyl)-6-(thiazol-2-yl)thieno[2,3-b]pyridin-3-amine]
- IC50 [1, 8]: 3.73 nM

Molecule: Nc1c([S+]([O-])CCCCCl)sc2nc(-c3cccs3)cc(-c3ccccc3)c12 (stereo not drawn) [SW209329, 2-((4-chlorobutyl)sulfinyl)-4-phenyl-6-(thiophen-2-yl)thieno[2,3-b]pyridin-3-amine]
- IC50 [1, 8]: 4.36 nM

Molecule: CCCCS(=O)(=O)c1sc2nc(-c3nccs3)cc(-c3ccc(CO)cc3)c2c1N [SW209333]
- IC50 [1, 8]: > 2500 nM

Molecule: CCCC[S+]([O-])c1sc2nc(-c3nccs3)cc(-c3cnc(C)n3C)c2c1N (stereo not drawn) [SW209415, 2-(butylsulfinyl)-4-(1,2-dimethyl-1H-imidazol-5-yl)-6-(thiazol-2-yl)thieno[2,3-b]pyridin-3-amine]
- increase of homed donor cells in recipient bone marrow ([7]; 10 mg/kg IP, FIG. 140): approximately 2.5 fold
- share of 15-PGDH inhibitory activity due to the (+) optical isomer [1]: at least 98%

Molecule: CCCC[S+]([O-])CSc1nc(-c2nccs2)cc(-c2nccn2C)c1C#N (stereo not drawn) [SW209427]
- IC50 [1, 8]: 1480 nM

Molecule: CCCCC(C)(C)[C@H](O)/C=C/[C@H]1[C@H](O)CC(=O)[C@@H]1C/C=C\CCCC(=O)O [dmPGE2, 16,16-dimethyl PGE2]
- increase in colonies compared with SW033291 treated marrow, in words [2]: slightly greater increase

Molecule: COc1ccc2c(c1)c(CC(=O)O)c(C)n2C(=O)c1ccc(Cl)cc1 [indomethacin, reference compound]
- effect of co-treatment on the homing effect of SW033291 ([7]; with SW033291 10 mg/kg IP): near completely blocked

Molecule: (−) SW209415
- IC50 ([1]; FIG. 135, read-out: IC50): 164 nM
